IC50 data for 19 compounds are collected here from patent publication US7135475B2, “Amide substituted xanthine derivatives” (Hoffmann-La Roche Inc., priority 2002, dated 2006).

The target in the test is T1, recombinant human cytosolic PEPCK (Homo sapiens, UniProt P35558).
T1 sequence (P35558 1-622): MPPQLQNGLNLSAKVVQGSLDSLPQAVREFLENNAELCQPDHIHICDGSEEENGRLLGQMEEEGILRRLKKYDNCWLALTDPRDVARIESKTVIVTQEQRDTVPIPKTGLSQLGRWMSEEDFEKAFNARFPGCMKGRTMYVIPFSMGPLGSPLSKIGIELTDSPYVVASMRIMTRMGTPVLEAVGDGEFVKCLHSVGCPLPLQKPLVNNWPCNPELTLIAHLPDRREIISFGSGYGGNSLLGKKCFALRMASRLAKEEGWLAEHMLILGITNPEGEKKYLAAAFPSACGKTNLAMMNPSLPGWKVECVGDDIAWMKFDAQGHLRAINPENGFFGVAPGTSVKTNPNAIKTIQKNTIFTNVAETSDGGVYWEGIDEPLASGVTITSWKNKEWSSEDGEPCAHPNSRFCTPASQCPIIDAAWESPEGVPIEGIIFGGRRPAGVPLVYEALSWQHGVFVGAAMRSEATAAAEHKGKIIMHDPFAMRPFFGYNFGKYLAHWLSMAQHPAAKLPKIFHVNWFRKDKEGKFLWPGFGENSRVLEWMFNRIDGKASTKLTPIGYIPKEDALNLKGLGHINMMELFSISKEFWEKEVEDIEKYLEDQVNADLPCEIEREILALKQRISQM
The test is described as follows: PEPCK enzyme assay (coupled pyruvate kinase/lactate dehydrogenase, absorbance at 340). To be noted: recombinant human cytosolic GST-PEPCK; GTP and OAA at 3 fold and 10 fold Km; final DMSO 10%; room temperature, twenty minutes; read-out: In vitro IC50. Format: biochemical. The procedure:
E. coli cells expressing GST-PEPCK were suspended in 5 volumes of lysis buffer (50 mM Tris-hydroxymethyl aminomethyl (TRIS), 150 mM sodium chloride (NaCl), 10 mM ethylene-diametetraacetic acid (EDTA), 5 mM dithiothreitol(DTT), 1% Nonidet P-40, pH 7.4) in the presence of protease inhibitors, incubated with lysozyme at 200 micrograms/ml for 30 min. at room temperature, and sonicated 4×30 seconds at 4 degrees C. After centrifugation at 12,000×g for 20 min. to remove insoluble material, the supernatant was loaded onto glutathione Sepharose (Pharmacia), washed with lysis buffer followed by washing with lysis buffer in the absence of NP-40. GST-PEPCK was eluted with the same buffer containing 20 mM glutathione. The eluted protein was concentrated and dialyzed against 25 mM Hepes(N-[2-hydroxyethyl]piperazine-N′[2-ethanesulfonic acid), 150 mM NaCl, 2.5 mM EDTA, 5 mM DTT, 30% glycerol, pH 7.4, and stored at −20 ° C.
The inhibitory effect of the compounds of the present invention on PEPCK enzymatic activity was determined using recombinant human cytosolic PEPCK, expressed and purified from E.coli as a GST-fusion. Guanosine triphosphate (GTP) and manganese dependent PEPCK enzyme activity catalyzed the decarboxylation of oxalacetate leading to the formation of guanosine diphosphate (GDP) and phosphoenol pyruvate (PEP). This reaction is coupled to pyruvate kinase and lactate dehydrogenase catalyzed reactions and the overall reaction rate determined by measuring the change in absorbance at 340 nm (Chang, H. C. and Lane M. D., J. Biol.Chem. 241:2413–2420, 1966). The following modifications were made to the protocol: 2.5 μg of recombinant, human cytosolic glutathione-S-transferase (GST)-PEPCK was added to a reaction mixture at room temperature which contained 0.3 mM GTP, 0.3 mM oxaloacetate (OAA), 3 mM magnesium chloride (MgCl2), 0.075 mM manganese chloride (MnCl2), 30 mM potassium phosphates (KPO4), pH 7.6, 1 mM dithiothreitol (DTT), 0.2 mM adenosine diphosphate (ADP), 1 mM nicotinamide adenine dinucleotide, reduced form (NADH), 0.9 Units/ml each of pyruvate kinase and lactate dehydrogenase and 1 mg/ml bovine serum albumin (BSA). Test compounds were added such that final concentration of DMSO was 10%. Reactions were run for twenty minutes.
Km values for GTP and OAA were determined according to Michelis-Menton conditions as described in Cornish-Bowden (Fundamentals of Enzyme Kinetics, 1995) in essentially the coupled assay conditions described above. […] Test compounds were added to reactions over a range of concentrations and IC50's were calculated from plots of inhibitor concentration versus enzyme rate. This method of determination of IC50 values is equally applicable to calculations based on PEPCK cellular assay.
The in vitro biological activity of several representative preferred compounds of the present invention in the foregoing PEPCK enzymatic assay is presented in Table 1.

In the case of `CN(C(=O)c1cccnc1)c1ccc(Cc2nc3c([nH]2)c(=O)n(Cc2ccccc2F)c(=O)n3CC2CC2)cc1` [Example 97, N-{4-[3-Cyclopropylmethyl-1-(2-fluorobenzyl)-2,6-dioxo-2,3,6,7-tetrahydro-1H-purin-8-ylmethyl]-phenyl}-N-methyl-nicotinamide], the 50% inhibitory concentration (IC50) is 420 nM. With `Cc1ccc(C(=O)N(CC2CCC2)c2ccc(Cc3nc4c([nH]3)c(=O)n(Cc3ccccc3F)c(=O)n4CC3CCC3)cc2)cn1` [Example 121, N-Cyclobutylmethyl-N-{4-[3-cyclobutylmethyl-1-(2-fluorobenzyl)-2,6-dioxo-2,3,6,7-tetrahydro-1H-purin-8-ylmethyl]-phenyl}-6-methyl-nicotinamide] the figure was 390 nM; with `CN(C(=O)c1cccnc1N)c1ccc(Cc2nc3c([nH]2)c(=O)n(Cc2ccccc2F)c(=O)n3CC2CC2)cc1` [Example 93, 2-Amino-N-{4-[3-cyclopropylmethyl-1-(2-fluorobenzyl)-2,6-dioxo-2,3,6,7-tetrahydro-1H-purin-8-ylmethyl]-phenyl}-N-methyl-nicotinamide], 280 nM. The value for `Cc1ncccc1C(=O)N(C)c1ccc(Cc2nc3c([nH]2)c(=O)n(Cc2ccccc2F)c(=O)n3CC2CC2)cc1` [Example 95, N-{4-[3-Cyclopropylmethyl-1-(2-fluorobenzyl)-2,6-dioxo-2,3,6,7-tetrahydro-1H-purin-8-ylmethyl]-phenyl}-2,N-dimethyl-nicotinamide] was 370 nM; that for `CC(=O)Nc1ccc(Cc2nc3c([nH]2)c(=O)n(Cc2ccccc2F)c(=O)n3CC2CC2)cc1` [Example 42, N-{4-[3-Cyclopropylmethyl-1-(2-fluorobenzyl)-2,6-dioxo-2,3,6,7-tetrahydro-1H-purin-8-ylmethyl]-phenyl}-acetamide] was 930 nM; that for `CN(C(=O)c1sccc1C(N)=O)c1ccc(Cc2nc3c([nH]2)c(=O)n(Cc2ccccc2F)c(=O)n3CC2CC2)cc1` [Example 115, Thiophene-2,3-dicarboxylic acid 3-amide 2-({4-[3-cyclopropylmethyl-1-(2-fluorobenzyl)-2,6-dioxo-2,3,6,7-tetrahydro-1H-purin-8-ylmethyl]-phenyl}-methyl-amide)] was 930 nM. With `Cc1ccc(C(=O)N(C)c2ccc(Cc3nc4c([nH]3)c(=O)n(Cc3ccccc3F)c(=O)n4CC3CCC3)cc2)cn1` [Example 88, N-{4-[3-Cyclobutylmethyl-1-(2-fluorobenzyl)-2,6-dioxo-2,3,6,7-tetrahydro-1H-purin-8-ylmethyl]-phenyl}-6,N-dimethyl-nicotinamide] the figure was 340 nM; with `Cc1nn(C)c(C)c1C(=O)C(=O)N(C)c1ccc(Cc2nc3c([nH]2)c(=O)n(Cc2ccccc2F)c(=O)n3CC2CC2)cc1` [Example 103, N-{4-[3-Cyclopropylmethyl-1-(2-fluorobenzyl)-2,6-dioxo-2,3,6,7-tetrahydro-1H-purin-8-ylmethyl]-phenyl}-N-methyl-2-oxo-2-(1,3,5-trimethyl-1H-pyrazol-4-yl)-acetamide], 250 nM; with `Cc1oncc1C(=O)N(C)c1ccc(Cc2nc3c([nH]2)c(=O)n(Cc2ccccc2F)c(=O)n3CC2CC2)cc1` [Example 114, 5-Methyl-isoxazole-4-carboxylic acid {4-[3-cyclopropylmethyl-1-(2-fluorobenzyl)-2,6-dioxo-2,3,6,7-tetrahydro-1H-purin-8-ylmethyl]-phenyl}-methyl-amide], 740 nM. On to `Cc1nc(N)sc1C(=O)N(C)c1ccc(Cc2nc3c([nH]2)c(=O)n(Cc2ccccc2F)c(=O)n3CC2CC2)cc1` [Example 106, 2-Amino-4-methyl-thiazole-5-carboxylic acid {4-[3-cyclopropylmethyl-1-(2-fluorobenzyl)-2,6-dioxo-2,3,6,7-tetrahydro-1H-purin-8-ylmethyl]-phenyl}-methyl-amide], for which the IC50 was 370 nM. On to `CCCCN(C(=O)c1ccc(C)nc1)c1ccc(Cc2nc3c([nH]2)c(=O)n(Cc2ccccc2F)c(=O)n3CCCC)cc1` [Example 118, N-Butyl-N-{4-[3-butyl-1-(2-fluorobenzyl)-2,6-dioxo-2,3,6,7-tetrahydro-1H-purin-8-ylmethyl]-phenyl}-6-methyl-nicotinamide], for which the concentration for half-maximal inhibition (IC50) was 560 nM. With `Cc1nc(C)c(C(=O)N(C)c2ccc(Cc3nc4c([nH]3)c(=O)n(Cc3ccccc3F)c(=O)n4CC3CC3)cc2)s1` [Example 105, 2,4-Dimethyl-thiazole-5-carboxylic acid {4-[3-cyclopropylmethyl-1-(2-fluorobenzyl)-2,6-dioxo-2,3,6,7-tetrahydro-1H-purin-8-ylmethyl]-phenyl}-methyl-amide] the figure was 320 nM. With `Cc1nn(C)c(C)c1C(=O)N(C)c1ccc(Cc2nc3c([nH]2)c(=O)n(Cc2ccccc2F)c(=O)n3CC2CC2)cc1` [Example 102, 1,3,5-Trimethyl-1H-pyrazole-4-carboxylic acid {4-[3-cyclopropylmethyl-1-(2-fluorobenzyl)-2,6-dioxo-2,3,6,7-tetrahydro-1H-purin-8-ylmethyl]-phenyl}-methyl-amide] the figure was 230 nM. With `CN(C(=O)c1ccc(C#N)nc1)c1ccc(Cc2nc3c([nH]2)c(=O)n(Cc2ccccc2F)c(=O)n3CC2CC2)cc1` [Example 92, 6-Cyano-N-{4-[3-cyclopropylmethyl-1-(2-fluorobenzyl)-2,6-dioxo-2,3,6,7-tetrahydro-1H-purin-8-ylmethyl]-phenyl}-N-methyl-nicotinamide] the figure was 440 nM. In the case of `Cc1ccc(C(=O)N(c2ccc(Cc3nc4c([nH]3)c(=O)n(Cc3ccccc3F)c(=O)n4CC3CC3)cc2)C(C)C)cn1` [Example 119, N-{4-[3-Cyclopropylmethyl-1-(2-fluorobenzyl)-2,6-dioxo-2,3,6,7-tetrahydro-1H-purin-8-ylmethyl]-phenyl}-N-isopropyl-6-methyl-nicotinamide], the IC50 is 310 nM. As to `CC(=O)Nc1ccc(C(=O)N(C)c2ccc(Cc3nc4c([nH]3)c(=O)n(Cc3ccccc3F)c(=O)n4CC3CC3)cc2)cn1` [Example 98, 6-Acetylamino-N-{4-[3-cyclopropylmethyl-1-(2-fluorobenzyl)-2,6-dioxo-2,3,6,7-tetrahydro-1H-purin-8-ylmethyl]-phenyl}-N-methyl-nicotinamide], the half-inhibitory concentration (IC50) amounted to 440 nM. The value for `CN(C(=O)c1cnn(C)c1)c1ccc(Cc2nc3c([nH]2)c(=O)n(Cc2ccccc2F)c(=O)n3CC2CC2)cc1` [Example 112, 1-Methyl-1H-pyrazole-4-carboxylic acid {4-[3-cyclopropylmethyl-1-(2-fluorobenzyl)-2,6-dioxo-2,3,6,7-tetrahydro-1H-purin-8-ylmethyl]-phenyl}-methyl-amide] was 690 nM; that for `CN(C(=O)Cc1cccnc1)c1ccc(Cc2nc3c([nH]2)c(=O)n(Cc2ccccc2F)c(=O)n3CC2CC2)cc1` [Example 91, N-{4-[3-cyclopropylmethyl-1-(2-fluorobenzyl)-2,6-dioxo-2,3,6,7-tetrahydro-1H-purin-8-ylmethyl]-phenyl}-N-methyl-2-pyridin-3-yl-acetamide] was 410 nM. With `CN(C(=O)c1ccc(O)nc1)c1ccc(Cc2nc3c([nH]2)c(=O)n(Cc2ccccc2F)c(=O)n3CC2CC2)cc1` [Example 100, N-{4-[3-Cyclopropylmethyl-1-(2-fluorobenzyl)-2,6-dioxo-2,3,6,7-tetrahydro-1H-purin-8-ylmethyl]-phenyl}-6-hydroxy-N-methyl-nicotinamide] the figure was 550 nM.

The term IC50 denotes the concentration that gives 50% inhibition.
